Experimental data: BindingDB's records for patent US10759792 (The Johns Hopkins University, 2020)

Target: Calcium/calmodulin-dependent protein kinase type II subunit delta (Homo sapiens, UniProt Q13557)
Experiment: Inhibition Assay
Procedure: Compounds were added in 5 uL volume to wells in UV transparent 96-well plates ( area well size). The final compound concentrations tested ranged from 0.5 nM to 10 uM). Assays were performed in duplicate. CaMKIIδ is added to at a final concentration of 16 nM to a mixture containing 100 mM Tris (pH 7.5), 150 mM KCl, 0.27 mM EGTA, 1.3 mM PEP, 0.2 mg/ml AC3, 6.9% (v/v) PK/LDH mixture (Sigma P0294), 0.38 mM NADH and kept on ice. 72 uL of the enzyme mixture was added to the wells containing compounds and the plate was shaken briefly and kept on ice. The assay was initiated by adding 23 uL of a mixture containing 100 mM Tris (pH 7.5), 150 mM KCl, 1.7 mM CaCl2, 48 mM MgCl2, 0.35 mM ATP and 6.7 ug/mL calmodulin. The rate of ADP released was measured as the rate of absorbance decrease at […] at 25° C.

Sequence of Calcium/calmodulin-dependent protein kinase type II subunit delta (Q13557 whole entry): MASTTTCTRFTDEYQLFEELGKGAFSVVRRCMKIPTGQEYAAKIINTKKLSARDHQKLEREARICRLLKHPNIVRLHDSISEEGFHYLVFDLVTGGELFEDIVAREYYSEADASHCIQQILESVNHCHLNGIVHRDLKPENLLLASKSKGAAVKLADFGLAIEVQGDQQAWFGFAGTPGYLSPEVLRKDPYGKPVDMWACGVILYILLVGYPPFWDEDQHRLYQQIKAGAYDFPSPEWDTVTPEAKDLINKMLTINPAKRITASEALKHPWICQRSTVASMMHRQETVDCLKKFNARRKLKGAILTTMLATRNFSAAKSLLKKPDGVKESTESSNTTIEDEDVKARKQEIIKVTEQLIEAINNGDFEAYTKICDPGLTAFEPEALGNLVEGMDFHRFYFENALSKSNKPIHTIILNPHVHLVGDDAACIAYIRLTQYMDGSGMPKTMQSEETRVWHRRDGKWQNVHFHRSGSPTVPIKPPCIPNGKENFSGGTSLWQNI

IC50 [nM] | Compound
< 50 | NCCCNc1cccc(-c2ccnc3[nH]c4ccccc4c23)c1 [US10759792, Compound I-8]
< 50 | Cc1ccc2c(c1)[nH]c1nccc(-c3cccc(NCCN)c3)c12 [US10759792, Compound I-11]
